86 compounds from ChEMBL document CHEMBL1157539, “Thousands of chemical starting points for antimalarial lead identification” (Nature, 2010) can be followed below.

SMILES strings stand for the structures.

This experiment deals with Plasmodium falciparum. In words: GSK_TCMDC: Inhibition of Plasmodium falciparum 3D7 in whole erythrocytes, using parasite LDH activity as an index of growth. To be noted: Plasmodium falciparum, 3D7. The format is functional, organism-based.
`COc1cc2s/c(=N\C(=O)c3cccc([N+](=O)[O-])c3)n(C)c2cc1OC`: the XC50 is 722 nM.
Regarding `CC(=O)Nc1cccc(C(=O)Nc2ccc(-c3cccc(-c4nc5cc(C(F)(F)F)ccc5[nH]4)c3)cc2)c1`, the XC50 was 148 nM.
Turning to `O=C(Nc1cccc(C(F)(F)F)c1)c1cccc(S(=O)(=O)NCC2CCCN2CC2CCCCC2)c1` (stereo unspecified), the XC50 is 1110 nM.
Under `Cc1nnc2c(NC(=O)/C=C/c3ccc(OC(F)(F)F)cc3)cc3cc(Cl)ccc3n12` stands 170 nM; under `CCOc1cc(C=Cc2nc(O)c3ccccc3n2)cc(Cl)c1O`, 1180 nM; under `O=C(Nc1cc(C(F)(F)F)cc(C(F)(F)F)c1)N1CCC(CN2CCC(c3c[nH]c4ccccc34)CC2)CC1`, 187 nM.
With `Brc1cccc(Nc2nccc(Nc3ccc(Oc4ccccc4)cc3)n2)c1`, the XC50 is 1010 nM.
As to `CCCc1cn2c3c(cc(C(=O)N[C@@H](Cc4ccccc4)[C@H](O)CNC4CCCCC4)cc13)N(CC)S(=O)(=O)CC2`, the XC50 was determined as 80.6 nM.
Turning to `COc1cc(NCCCNC(=O)c2ccc(Cl)c(Cl)c2)nc2ccccc12`, the XC50 was 137 nM.
The compound `CCOc1ccc(OCCCON2C(=N)N=C(N)NC2(C)C)cc1` returned an XC50 of 3.2 nM.
On to `CSc1nc2nc(C)c(Cc3cccc(C(F)(F)F)c3)c(C)n2n1`, for which the XC50 came out at 193 nM.
`CCC(C)(C)c1ccc(OCCCC(=O)Nc2ccc(Cl)c([N+](=O)[O-])c2)c(C(C)(C)CC)c1` displayed an XC50 of 969 nM.
Consider `O=C(NC1CCC(CN2CCC(c3c[nH]c4ccccc34)CC2)CC1)c1[nH]c(=O)[nH]c(=O)c1F` (stereo unspecified), for which the XC50 was found to be 796 nM.
`COc1nc2c(CCN3CCC(NCc4ccc5c(c4)NCCO5)CC3)c(Cl)cnc2cc1F` showed an XC50 of 179 nM.
The compound `CCCc1cc(C(=O)N[C@@H](Cc2ccccc2)[C@H](O)CNC(C)C)c(F)c(N2CCCC2=O)c1` registered an XC50 of 943 nM.
In the case of `Cc1ccccc1N1CCN(c2ccc(C(=O)NC(C)C)cn2)CC1`, the XC50 was determined as 901 nM.
Compound `COc1cc2c(cc1OC)CN(CCCCc1ccc(NC(=O)c3cc(Cl)cc(Cl)c3)cc1)CC2` came in with an XC50 of 1200 nM.
For the compound `CC(=O)Nc1ccc(CN2CCC(CNC(=O)c3cc(-c4cccc(C(F)(F)F)c4)cs3)C2)cc1` (stereo unspecified), the XC50 was 1100 nM.
For `COc1ccc(CNCc2ccc(F)cc2)cc1-c1ccc(S(=O)(=O)NCCN2CCCC2)s1`, the XC50 is 706 nM.
Compound `Cc1cccc2nc(-c3ccc(-c4cccc(CN5CCCC5CN)c4)s3)[nH]c12` (stereo unspecified) came in with an XC50 of 867 nM.
Under `COc1cc2nc(NCCc3ccccc3)nc(NCCCc3ccccc3)c2cc1OC` stands 158 nM; under `CN(CC(=O)Nc1cc(C(F)(F)F)ccc1-n1cncn1)Cc1nc2ccccc2s1`, 1410 nM; under `Cc1cc(C2CCN(CCCCNC(=O)c3ccc(-c4ccc(C(F)(F)F)cc4)cc3)CC2)c(C)cc1OCC(N)=O`, 805 nM.
In the case of `COc1ccc(CN(C)CCOc2ccc(NC(=O)c3cccc4c(=O)cc(-c5ccccc5)[nH]c34)cc2)cc1OC`, the XC50 was 921 nM.
Take `Cc1nc(N)nc(N)c1-c1ccc(Br)cc1`: the XC50 worked out at 232 nM.
Under `CC[C@H](NC(=O)c1c(CN2CCC(N3CCCCC3)CC2)c(-c2ccccc2)nc2c(Cl)c(O)ccc12)c1ccccc1` stands 734 nM; under `CN(C)S(=O)(=O)c1ccc(C(=O)N(c2nc(-c3ccccc3)cs2)C2CCCCC2)cc1`, 760 nM.
Under `Oc1cc(Nc2ccnc3cc(I)ccc23)ccc1F` stands 740 nM; under `N#Cc1cccc(C(=O)NC2CCN(CCCCCNC(=O)/C=C/c3ccc(Cl)c(Cl)c3)CC2)c1`, 876 nM.
In the case of `OCC(c1ccccc1)n1c(COc2ccc(Cl)cc2)nc2c(OCCCN3CCCCC3)cccc21` (stereo unspecified), the XC50 came to 916 nM.
In turn, `COCCNCc1cccc(-c2cccc(CNC3CCN(Cc4ccccc4)CC3)c2)c1` displayed an XC50 of 283 nM.
`CCCCCNC(=N)N/N=C/c1c[nH]c2ccc(OC)cc12` came in with an XC50 of 955 nM.
For `CCOc1ccccc1C1C(C(=O)C(C)(C)C)N2c3ccc(Br)cc3C=CC2C12C(=O)c1ccccc1C2=O` (stereo unspecified), the XC50 stood at 853 nM.
Under `NCC1CCCN1Cc1ccc(-c2ccc(-c3nc4cc(F)ccc4[nH]3)cc2)cc1` (stereo unspecified) stands 926 nM; under `CN1CCN(c2ccnc3ccc(NC(=O)Nc4cccc5ccccc45)cc23)CC1`, 488 nM.
As for `COc1cccc2sc(N3CCN(C(=O)c4ccc([N+](=O)[O-])o4)CC3)nc12`, the XC50 stood at 869 nM.
`Cc1ccc(-n2c(Cc3cccc4ccccc34)nnc2SCCC#N)c(C)c1` showed an XC50 of 465 nM.
Take `CCc1ccc(C(=O)Nc2cccc(CN3CCCN(Cc4ccc(O)cc4)CC3)c2)cc1`: the XC50 came to 1030 nM.
With `CC(C)(CNC(=O)C1CCN(Cc2ccc(Cl)cc2)CC1)c1nc(-c2ccc(Cl)c(O)c2)c(-c2ccncc2)[nH]1`, the XC50 stood at 623 nM.
`Cc1ccccc1C1CCN(c2ccc(C(=O)Nc3ccc(F)cc3)cn2)CC1` displayed an XC50 of 194 nM.
The compound `Cc1c(Cn2ncc(N3CCC(N)CC3)c(Cl)c2=O)cccc1NC(=O)Nc1ccc(-c2ccccc2)cc1` gave an XC50 of 697 nM.
Turning to `CCc1sc(-c2ccc(C(C)(C)C)cc2)nc1C(=O)NCCCN1CCCC1=O`, the XC50 was 988 nM.
On to `CCN1CCC2(c3cccc(OC)c3)Cc3nc4ccccc4c(-c4ccccc4)c3CC2C1` (stereo unspecified), for which the XC50 was 348 nM.
As for `O=C(Nc1ccc(Cl)cc1)Nc1ccc(-c2csc(-c3nc4ccccc4[nH]3)c2)cc1`, the XC50 worked out at 799 nM.
`N#Cc1ccc2c(c1)CCN(CCC1CCC(NC(=O)c3ccc(-c4ccccn4)s3)CC1)CC2` (stereo unspecified) came in with an XC50 of 1010 nM.
Compound `O=S(=O)(Nc1ccc(CCN2CCC(N3CCCCC3)CC2)cc1)c1ccc2ccccc2c1` showed an XC50 of 1010 nM.
For `CN1CCN(CCCN(Cc2ccc(-c3cccc(CNCc4ccc5c(c4)OCO5)c3)cc2)C(=O)Nc2ccccc2)CC1`, the XC50 was found to be 183 nM.
Regarding `COC(=O)c1ccc(C2OC3(C(=O)c4ccccc4C3=O)C(OC)=C2Cl)cc1C(C)=O` (stereo unspecified), the XC50 stood at 546 nM.
Take `O=C(NCc1ccccn1)C(c1cc2ccccc2o1)N1CCN(C(c2ccccc2)c2ccccc2)CC1` (stereo unspecified): the XC50 was 856 nM.
In turn, `O=C(Nc1ccc(Cl)cc1)NC1CCN(CCCCCNC(=O)C2CC2c2ccc(Cl)c(Cl)c2)CC1` (stereo unspecified) had an XC50 of 576 nM.
For the compound `Cc1ccnc(NC(c2cccc(OCc3ccccc3)c2)c2ccc3cccnc3c2O)c1` (stereo unspecified), the XC50 came to 864 nM.
Under `COc1ccc2ncc(Cl)c(CCN3C[C@H](CNCc4ccc5c(n4)NC(=O)CS5)[C@H](O)C3)c2n1` stands 1000 nM; under `O=C(Nc1ccc(F)cc1)N1CCCN(c2ccnc3cc(Cl)ccc23)CC1`, 785 nM.
In turn, `CCN1CCC(N2CCC(C(=O)Nc3cccc(-c4cccc(Cl)c4)c3)CC2)CC1` displayed an XC50 of 1080 nM.
Regarding `O=S(=O)(Nc1cc2c(cc1OCCCN1CCCCC1)CCNCC2)c1ccc(-c2ccc(Cl)cc2)cc1`, the XC50 came to 1000 nM.
Under `OC(CN1CCN(C2CCCCC2)CC1)Cn1c2ccccc2c2cc(Br)ccc21` (stereo unspecified) stands 857 nM; under `CC(Cc1ccc(C(=O)Nc2ccc(CC(C)NCCc3cccc(Cl)c3)cc2)cc1)NCCc1ccc(C(F)(F)F)cc1` (stereo unspecified), 570 nM; under `O=S(=O)(c1ccc(OCc2ccc(Cl)cc2)cc1)c1cc2c(cc1O)CCN(C1CCC1)CC2`, 942 nM.
Turning to `COc1cc2nc(Cl)nc(Nc3ccncc3)c2cc1OC`, the XC50 is 1210 nM.
`c1ccc(-c2cc(NCCCCCCCCNc3cc(-c4ccccc4)nc4ccccc34)c3ccccc3n2)cc1` returned an XC50 of 395 nM.
Turning to `CS(=O)(=O)N(c1ccccc1)c1cc(C(=O)N[C@@H](Cc2ccccc2)[C@H](O)CNC2CCCCC2)cc(N2CCCC2=O)c1`, the XC50 was 78.1 nM.
For the compound `COc1cc(NC(=O)Nc2ccc([N+](=O)[O-])cc2OC)c(OC)cc1Cl`, the XC50 was found to be 1470 nM.
As to `CC(C)CC1c2[nH]c3ccccc3c2CCN1C(=O)CCc1ccccc1` (stereo unspecified), the XC50 was 965 nM.
Under `Cc1nc(N)nc(N)c1CCCOc1cccc(Cl)c1` stands 476 nM; under `CC(C)NCc1cc(Nc2ccnc3cc(Cl)ccc23)ccc1O`, 25 nM.
Under `CN1CCCC1CCNC(=O)[C@H](CC1CCCCC1)NC(=O)c1ccc(O)c(-c2ccc(Cl)c(Cl)c2)c1` (stereo partly specified) stands 736 nM.
Take `Cc1ccc(C)c2sc(N(CCCn3ccnc3)C(=O)c3ccco3)nc12`: the XC50 came to 874 nM.
As for `CCN(CC)c1ccc2nc(N)nc(N)c2c1Cl`, the XC50 was 30.9 nM.
Compound `COc1c(Br)cc(Br)cc1C(C)=O` gave an XC50 of 989 nM.
As for `Cc1noc(C)c1-c1cccc(CNCc2cccc(-c3ccc(-c4nc5ccccc5[nH]4)cc3)c2)c1`, the XC50 was 228 nM.
With `Cc1cc(N[C@@H](CC(C)C)C(=O)Nc2ccccc2)nc(NCc2ccccc2C)n1`, the XC50 turned out to be 777 nM.
For `O=C(Nc1cccc(-c2ccc(-c3nc4cc(C(F)(F)F)ccc4[nH]3)s2)c1)c1c[nH]cn1`, the XC50 amounted to 1110 nM.
The compound `CCCc1cc(N2CCC(N3CCCC3)CC2)nc(Nc2ccc(Cl)cc2)n1` came in with an XC50 of 765 nM.
`CCN(CC)CCCC(C)Nc1c2ccccc2nc2ccc3ccccc3c12` (stereo unspecified) registered an XC50 of 1040 nM.
`Cc1ccccc1C1CCN(C2CCC(NC(=O)/C=C/c3cc(C(F)(F)F)ccc3F)CC2)CC1` (stereo unspecified): the XC50 is 839 nM.
On to `COc1ccc(Nc2ccnc3cc4ccccc4cc23)cc1`, for which the XC50 came to 683 nM.
In turn, `O=C(Nc1ccc(Oc2ccccc2)cc1)N(CCN1CCCC1)Cc1ccc(-c2ccc(CN3CCNCC3)cc2)cc1` showed an XC50 of 892 nM.
On to `Cc1cc(N(C)C)nc(Nc2ccc(NC(=O)Nc3ccccc3)cc2)n1`, for which the XC50 worked out at 134 nM.
`Cc1ccc2c(=O)n(C)c(=O)n(C)c2n1`: the XC50 is 819 nM.
Under `Cc1ccc(S(=O)(=O)N2CCN(C(=O)c3cc(-c4cccs4)n[nH]3)CC2)c(C)c1` stands 866 nM; under `Cc1cccc2[nH]cc(C3CCN(CCC4CCN(C(=O)/C=C/c5ccc(Cl)c(Cl)c5)CC4)CC3)c12`, 1220 nM.
Take `N#Cc1c(N2CCCCCC2)nc(N)c2c(N)nc3c(c12)CC(=O)N3c1ccc(F)cc1`: the XC50 turned out to be 213 nM.
Regarding `OC(c1ccccc1)C1CN(CCC2CC3CCC2C3)CCC1(O)c1ccccc1` (stereo unspecified), the XC50 came to 346 nM.
On to `CC[C@H]1CN2CCc3c([nH]c4ccccc34)[C@@H]2C[C@@H]1CC1c2cc(OC)c(OC)cc2CCN1C` (stereo partly specified), for which the XC50 was determined as 1090 nM.
`COc1cc(NCC(CN)Cc2ccc3c(c2)OCO3)nc2ccccc12` (stereo unspecified) gave an XC50 of 820 nM.
`Cc1ccc(NC(=O)c2ccc(NCCCN(C)Cc3ccccc3)c([N+](=O)[O-])c2)cc1F` returned an XC50 of 701 nM.
